Results taken from paper PMC12670160, “A drug-repurposing screen of FDA- and EMA-approved drugs identifies two NF-κB inhibitors active against eumycetoma” (Journal of Antimicrobial Chemotherapy, 2025).
≈ marks a conversion by molar mass, not a printed value. Where two headings read alike, the source gives them in different places.

Tests used:
M. mycetomatis [1] = system: M. mycetomatis; parameters: method as in PMID 35398930, PMID 15793113, PMID 36005544, PMID 34181477, PMID 22964246; conditions: against M. mycetomatis; cited from earlier work
M. mycetomatis [2] = experiment: In vitro susceptibility, averages over M. mycetomatis isolates (average metabolic activity at 2 µM, mean MIC); assay type: cell-based; conditions: Madurella mycetomatis, 96 h, 4 days at 37°C, CellTiter-Glo, average of 3 isolates, 20% or below = inhibition
Procedure: M. mycetomatis isolate MM55 was used to screen the Oncode library. This strain was kindly provided by Prof. […] The three M. mycetomatis isolates were identified by ITS sequencing and maintained at −80°C at Erasmus MC. Prior to in vitro screening, isolates were cultured on Sabouraud agar plates (BD, Erembodegem, Belgium) at 37°C.
The Oncode Drug Repurposing library was based on the drug repurposing library from the Drug Repurposing Hub of the Broad Institute and recreated by the Oncode institute.[13] […] Each well of the 384-well plates contained 0.6 µL of a 200 µM stock concentration of compound, resulting in a final concentration of 2 µM when the fungus was added. […] Furthermore, this concentration could also be reached in the G. mellonella larvae.[8],[11] The prepared 384-well plates were transferred on dry ice to the Erasmus MC and stored at −80°C until they were screened.
Each plate also contained a growth control (60 µL of M. mycetomatis hyphal suspension, plus 0.6 µL of DMSO) and a negative control (60 µL of culture medium, plus 0.6 µL of DMSO). Plates were then incubated for 4 days at 37°C, after which 30 µL of CellTiter-Glo 3D Cell Viability reagent was added to every well.[19] After 25 min of incubation at room temperature, the luminescence was measured with a CytoFluor Series 4000 luminometer (PerSeptive Biosystems, Framingham, MA, USA). To determine the metabolic activity, the following formula was used:
(§1) Percentagemetabolicactivity=(Absorbancetestluminensence−AbsorbanceNCluminensence/AbsorbanceGCluminensence−AbsorbanceNCluminensence)×100
(§2) where, GC is growth control and NC is negative control. The luminescence measured for the GC is considered as 100% metabolic activity. The luminescence for the NC is considered as 0% metabolic activity.

[3] = system: M. mycetomatis strain mm55; experiment: IC50 and MIC determination, CellTiter-Glo, strain mm55; assay type: cell-based, Madurella mycetomatis; conditions: for IC50: concentration inhibiting 50% of fungal hyphae growth; for MIC: concentration with complete growth inhibition
M. mycetomatis [4] = experiment: In vitro susceptibility, averages over M. mycetomatis isolates (average metabolic activity at 2 µM, mean MIC); assay type: cell-based, Madurella mycetomatis; conditions: for MIC: Madurella mycetomatis, mean/average over strains MM55, P1 and I1
M. mycetomatis strain I1 = experiment: IC50 and MIC determination, CellTiter-Glo, strain I1; assay type: cell-based, Madurella mycetomatis
M. mycetomatis strain P1 = experiment: IC50 and MIC determination, CellTiter-Glo, strain P1; assay type: cell-based, Madurella mycetomatis
[5] = system: M. mycetomatis-infected G. mellonella larvae; conditions: cited from earlier work
[6] = system: M. mycetomatis isolate MM55; experiment: Oncode library screen at 2 µM, CLSI-based in vitro susceptibility assay with CellTiter-Glo (metabolic activity); assay type: cell-based, Madurella mycetomatis; conditions: primary screen, strain MM55, 20% or below = inhibition
Procedure: M. mycetomatis isolate MM55 was used to screen the Oncode library. This strain was kindly provided by Prof. A. Fahal of the Mycetoma Research Centre in 1999. The most promising hit compounds were also screened against M. mycetomatis isolates P1 and I1, which originated from Mali and India, respectively.[17] The three M. mycetomatis isolates were identified by ITS sequencing and maintained at −80°C at Erasmus MC. Prior to in vitro screening, isolates were cultured on Sabouraud agar plates (BD, Erembodegem, Belgium) at 37°C.
The Oncode Drug Repurposing library was based on the drug repurposing library from the Drug Repurposing Hub of the Broad Institute and recreated by the Oncode institute.[13] The library contained 5631 drugs.[18] A copy of this library was plated out on 384-well plates with lids (cat no. 655180; Greiner Bio-One, Alphen aan den Rijn, The Netherlands) by the Leiden University Medical Center. Each well of the 384-well plates contained 0.6 µL of a 200 µM stock concentration of compound, resulting in a final concentration of 2 µM when the fungus was added. From the previous libraries we screened, we noted that there are several compounds able to inhibit M. mycetomatis at this concentration in vitro. Furthermore, this concentration could also be reached in the G. mellonella larvae.[8],[11] The prepared 384-well plates were transferred on dry ice to the Erasmus MC and stored at −80°C until they were screened. We created a second library from the original library, containing only those 29 compounds that were active in the first screen.
. Each plate also contained a growth control (60 µL of M. mycetomatis hyphal suspension, plus 0.6 µL of DMSO) and a negative control (60 µL of culture medium, plus 0.6 µL of DMSO). Plates were then incubated for 4 days at 37°C, after which 30 µL of CellTiter-Glo 3D Cell Viability reagent was added to every well.[19] After 25 min of incubation at room temperature, the luminescence was measured with a CytoFluor Series 4000 luminometer (PerSeptive Biosystems, Framingham, MA, USA). To determine the metabolic activity, the following formula was used:
as §1, §2

[7] = system: healthy uninfected G. mellonella larvae; conditions: 20 µL of 20 µM injected; 10 day observation; toxic if more than 20% of larvae died
Procedure: (§3) For in vivo experiments, sixth-week instar G. mellonella larvae were purchased from Blue-Lagoon, Maassluis, The Netherlands. The larvae were raised and kept in the dark at room temperature. Larvae without any discoloration and weighing around 500 mg were selected for experiments.
To determine the toxicity, 15 healthy uninfected larvae were injected with 20 µL of 20 µM compound as previously described.[16] […] As a control, a separate group of larvae were injected with 20 µL of PBS. Larvae were housed in Petri dishes with Whatman paper at 37°C in the dark. Survival was monitored for 10 days.

[8] = system: M. mycetomatis MM55-infected G. mellonella larvae; experiment: Therapeutic efficacy in M. mycetomatis-infected G. mellonella larvae (survival, log-rank); assay type: in vivo, Galleria mellonella; conditions: 20 µL of 10 µM at 4, 28 and 52 h post infection; 10 days
Procedure: as §3
The wet weight was determined and 10 mL of PBS per gram of mycelia was added. The suspension was then sonicated for 2 min to achieve a particle size of 10 µm. The fungal suspension (4 mg/40 µL) was injected into the last left pro-leg of a healthy G. mellonella larva with an insulin 29G U-100 needle to reach a final inoculum of 4 mg/larva. Larvae were placed in Petri dishes containing Whatman paper in a 37°C incubator.
A control group was also included in which M. mycetomatis-infected larvae were treated with PBS or with 1 mg/kg amphotericin B (Fungizone, Bristol Myers Squibb, Utrecht, The Netherlands). […] The treatment was repeated at 28 h post infection and 52 h post infection via different prolegs. The infection was monitored for 10 days.
To compare the survival rates between PBS treatment control and the different experimental groups a log-rank test was performed. All data were processed and performed in GraphPad Prism 10.

eumycetoma = conditions: first 6 months of treatment, cited from earlier work
[9] = M. mycetomatis-infected G. mellonella larvae
[10] = only at concentrations higher than used in human patients

Compound | MIC50 (M. mycetomatis [1]) | activity at 2 µM (M. mycetomatis [2]) | IC50 ([3]; Madurella mycetomatis) | MIC ([3]; Madurella mycetomatis) | IC50 (M. mycetomatis strain I1; Madurella mycetomatis, I1) | MIC (M. mycetomatis strain I1; Madurella mycetomatis, I1) | IC50 (M. mycetomatis strain P1; Madurella mycetomatis, P1) | MIC (M. mycetomatis strain P1; Madurella mycetomatis, P1) | Madurella mycetomatis metabolic activity at 2µM (%) [6] | other results
N#C/C(=C1/SC[C@@H](c2ccc(Cl)cc2Cl)S1)n1ccnc1 [Luliconazole] | 0.001 µg/mL (≈ 0.00282 µM) | 1% | < 0.03 µM | 0.03 µM (≈ 0.0106 µg/mL) | < 0.03 µM | 0.03 µM (≈ 0.0106 µg/mL) | < 0.03 µM | 0.03 µM (≈ 0.0106 µg/mL) |  | MIC (M. mycetomatis [4]): < 0.03 µM
C[C@@H](c1ncncc1F)[C@](O)(Cn1cncn1)c1ccc(F)cc1F [Voriconazole] | 0.125 µg/mL (≈ 0.358 µM) | 1.1% | 0.63 µM | 1 µM (≈ 0.349 µg/mL) | 0.2 µM | 0.25 µM (≈ 0.0873 µg/mL) | 0.33 µM | 0.5 µM (≈ 0.175 µg/mL) |  | larval survival [5, 9]: No prolonged larval survival
COC(=O)C1=C(C#N)NC(C)=C(C(=O)OC(C)C)C1c1cccc([N+](=O)[O-])c1 (stereo not shown) [nilvadipine arc029] |  |  |  |  |  |  |  |  | 85.2% | 
Cc1ccc(-c2c(-c3nn(C)c4ncnc(N5CC[C@H](N6CCCCC6)C5)c34)cnn2C)cc1 [pf4981517] |  |  |  |  |  |  |  |  | 79.1% | 
CC(C)OC(=O)C1=CN(C(=O)c2ccc(F)c(F)c2)CC(C)(C)c2c1[nH]c1ccccc21 [turofexorate isopropyl xl335] |  |  |  |  |  |  |  |  | 92.4% | 
CC[C@@H]([C@H](C)O)n1ncn(-c2ccc(N3CCN(c4ccc(OC[C@@H]5CO[C@@](Cn6cncn6)(c6ccc(F)cc6F)C5)cc4)CC3)cc2)c1=O [Posaconazole] | 0.03 µg/mL (≈ 0.0428 µM) | 1.9% | 0.13 µM | 0.25 µM (≈ 0.175 µg/mL) | < 0.03 µM | 0.03 µM (≈ 0.021 µg/mL) | < 0.03 µM | 0.03 µM (≈ 0.021 µg/mL) |  | larval survival [5, 10]: Prolonged survival; MIC (M. mycetomatis [4]): < 0.03 µM
N#C/C(=C1/SCC(c2ccccc2Cl)S1)n1ccnc1 (stereo not shown) [Lanoconazole] | 0.002 µg/mL (≈ 0.00625 µM) | 3% | 0.04 µM | 0.06 µM (≈ 0.0192 µg/mL) | < 0.03 µM | 0.03 µM (≈ 0.0096 µg/mL) | < 0.03 µM | 0.03 µM (≈ 0.0096 µg/mL) |  | MIC (M. mycetomatis [4]): < 0.03 µM
C[CH2][Hg][S]c1ccccc1C(=O)[O-].[Na+] [Thimerosal] |  |  |  |  |  |  |  |  |  | Toxicity in G. mellonella larvae at 20 µM [7]: toxicity was noted; IC50 [3]: 0.08 µM; MIC [3]: 0.25 µM; Average metabolic activity at 2 µM (%) (M. mycetomatis [4]; 2 µM, 4 days at 37°C, CellTiter-Glo, average of 3 isolates, 20% or below = inhibition): 1.4%; Survival of M. mycetomatis-infected larvae versus PBS [8]: No prolonged survival; log-rank P versus PBS treatment [8]: 0.5242; IC50 (M. mycetomatis strain I1; strain I1): 0.04 µM; MIC (M. mycetomatis strain I1; strain I1): 0.06 µM; IC50 (M. mycetomatis strain P1; strain P1): < 0.03 µM; MIC (M. mycetomatis strain P1; strain P1): 0.03 µM
C[C@@H](c1nc(-c2ccc(C#N)cc2)cs1)[C@@](Cn1cncn1)(OCOP(=O)(O)O)c1ccc(F)cc1F [fosravuconazole] |  |  |  |  |  |  |  |  |  | lesion size or β-glucan levels (eumycetoma; 200 mg/week): no reduction; lesion size or β-glucan levels (eumycetoma; 300 mg/week): no reduction
C[C@@H](c1nc(-c2ccc(C#N)cc2)cs1)[C@](O)(Cn1cncn1)c1ccc(F)cc1F [Ravuconazole] | 0.016 µg/mL (≈ 0.0366 µM) | 1.3% | 0.17 µM | 0.25 µM (≈ 0.109 µg/mL) | < 0.03 µM | 0.03 µM (≈ 0.0131 µg/mL) | < 0.03 µM | 0.06 µM (≈ 0.0262 µg/mL) |  | larval survival [5, 10]: Prolonged survival
O=C(NC[C@H]1CN(c2ccc(N3CCOCC3=O)cc2)C(=O)O1)c1ccc(Cl)s1 [rivaroxaban xarelto] |  |  |  |  |  |  |  |  | 98.3% | 
CC(=O)N1CCN(c2ccc(OCC3COC(Cn4ccnc4)(c4ccc(Cl)cc4Cl)O3)cc2)CC1 (stereo not shown) [Ketoconazole] |  | 0.9% | 0.66 µM | 1 µM (≈ 0.531 µg/mL) | 0.05 µM | 0.06 µM (≈ 0.0319 µg/mL) | 0.17 µM | 0.25 µM (≈ 0.133 µg/mL) |  | larval survival [5, 9]: No prolonged larval survival
